# From patent US12090147B2, “Combination therapy with 2-(4-chlorophenyl)-N-((2-(2,6-dioxopiperidin-3-yl)-1-oxoisoindolin-5-yl)methyl)-2,2-difluoroacetamide” (Celgene Corporation, priority 2019, dated 2024)
# What was measured:
# Format in all cases: cell-based, human
# [1] = tested on: ML-2 parental, caspase 1 and caspase 8 knock out cells; assay: IL-1β in CRISPR/Cas9 caspase 1 or caspase 8 knock out cells (lysate and supernatant); settings: 1 μM Compound 1
# Description: To further confirm if caspase 8 is necessary for Compound 1 induced IL-1β upregulation and/or release, knock out studies were performed. Caspase 1 or caspase 8 was knocked out by CRISPR/Cas9 in ML-2 cells, and the effect of Compound 1 on intracellular and secreted IL-1β levels was investigated. Parental, caspase 1 and caspase 8 knock out cells were treated with or without 1 μM Compound 1. IL-1β levels were analyzed 48 and 72 hours post-compound treatment in cell lysate and culture supernatant.
# ML-2 = assay: Cytokine induction, electrochemiluminescence assay of culture supernatant; settings: compounds at 1 μM, 72 hours
# [2] = tested on: eight AML cell lines and normal PBMC; assay: IL-1 family cytokine induction across the cell panel
# Description: (§1) For cytokine assays on AML cell lines, cells were seeded at 1 million per mL, 3 mL per well of 6-well plates and allowed set overnight. The next day, cells were treated with 3 μL 1000× working stock of compounds of interest.
# (§2) IL-1α (Meso Scale Disgnostics, Cat No. K151RBD), IL-1β (Meso Scale Disgnostics, Cat No. K151QPD), IL-1RA (Meso Scale Disgnostics, Cat No. K151WTD), IL-18 (Meso Scale Disgnostics, Cat No. K151VJK), TNFa (Meso Scale Disgnostics, Cat No. K151QWD), VEGF Meso Scale Disgnostics, Cat No. K151RHD) levels were measured by (Meso Scale Disgnostics assay kits following manufacturer's instructions. Measurements were made on a MESO™ SECTOR S 600 plate reader (Meso Scale Disgnostics).
# (§3) The level of intracellular pro IL-1β and released IL-1β in eight AML cell lines and normal PBMC treated with a titration of Compound 1 over a 48 hour period was assessed. (see FIGS. 1A-1C, Table 2). Supernatant IL-1βb level was induced over 5 fold in 6 out of 8 AML cell lines and normal PBMC upon Compound 1 treatment compared to DMSO (FIGS. 1A, 1B, and 1C, Table 2).
# The maturation of IL-1β can be mediated through classical caspase-1 inflammasome pathway, or a caspase-8 dependent non-canonical inflammasome signaling (Antonopoulos et al. J Biol Chem. 2015, 290(33):20167-84; Chauhan et al. Cell Rep. 2018, 25(9):2354-2368; and Schneider et al. Cell Rep. 2017, 21(13):3846-3859). To understand if classical caspase-1 mediated inflammasome pathway was activated by Compound 1, the levels of an inflammasome marker, IL-18, were tested in response to Compound 1 (FIG. 1B, Table 1), using a known inflammasome stimulant lipopolysaccharide (LPS) as positive control.
# MV4-11 [3] = assay: Cytokine induction, electrochemiluminescence assay of culture supernatant; settings: MV4-11
# Description: as §1
# (§4) Human AML cell lines, HL-60 (CCL-240), KG-1 (CCL-246), ML-2 (ACC-15), MOLM-13 (ACC-554), MV-4-11 (CRL-9591), NOMO-1 (ACC-542), TF-1 (CRL-2003), THP-1 (TIB-202), and U937 (CRL-1593) were obtained from American Type Culture Collection (ATCC; Manassas, VA) or Deutsche Sammlung von Mikroorganismen and Zellkulturen (DSMZ, Germany) cell banks. Acute myeloid leukemia cell lines were maintained in RPMI-1640 (ATCC Cat No. 30-2001) containing 20% fetal bovine serum (FBS) (Corning Cat No. 35-010-CV) and maintained in humidified incubators at 5% carbon dioxide.
# as §2
# (§5) Cell proliferation (CTG) and caspase 3/7 activation (IncuCyte) were analyzed using GraphPad Prism. Electrochemiluminescence data was analyzed using MSD Discovery Workbench platform.
# as §3
# KG-1 = assay: as above
# Description: as §1, §4, §2, §5, §3
# THP-1 = assay: as above
# Description: as §1, §4, §2, §5, §3
# NOMO-1 = assay: as above
# Description: as §1, §4, §2, §5, §3
# TF-1 = assay: as above
# Description: as §1, §4, §2, §5, §3
# [4] = tested on: Normal Peripheral Blood Mononuclear Cells; assay: as above; settings: PBMC
# Description: Normal PBMCs were purchased from AllCells (Cat No. PB006F). Primary AML BMMC in were purchased from Conversant (SKU ID: BBM1000-E1110036458110215SH) or Fidelis Research (AML55, AML57, AML73, AML74, AML76, AML79, AML80, AML81, AML84, AML95). Bone marrow from health donor was purchased from StemCell Technologies (Cat No. 70001.2).
# Normal PBMCs were cultured in RPMI-1640 (ATCC Cat No. 30-2001) containing 20% fetal bovine serum (Corning Cat No. 35-010-CV). Primary AML and bone marrows were cultured in Complete Medium Cytokines 1X: StemSpam™ Serum-Free Expansion Medium (StemCell Technologies Cat No. 09650) supplemented with 50 ng/mL Stem Cell Factor (Peprotech Cat No. 300-07), 50 ng/mL recombinant Human FLT3-Ligand (Peprotech Cat No. 300-19), 20 ng/mL recombinant human-interleukin-3 (Peprotech Cat No. 200-03), […] recombinant human-interleukin-6 (Peprotech Cat No. 200-06), 1 μM StemRegenin (StemCell Technologies Cat No. 72342), penicillin/streptomycin (Invitrogen Cat No. 15140122).
# as §2, §5, §3
# MV4-11 [5] = assay: as above; settings: compounds at 1 μM, 72 hours
# [6] = tested on: MOLM13 cell pair expressing wildtype GSPT1 or GSPT1 G575N; assay: Isogenic cell pair, endogenous GSPT1 vs non-degradable GSPT1 G575N; settings: MOLM13 overexpressing GSPT1 G575N
# From the text: To further confirm if IL-1β induction is an on-target effect of GSPT1 degradation, intracellular pro-IL-1β and secreted IL-1βb levels in response to Compound 1 treatment were compared in an isogenic MOLM13 cell pair either expressing endogenous wildtype GSPT1 or overexpressing a non-degradable form of GSPT1 G575N.
# [7] = most cell lines tested (FIG. 1B: ML-2), LPS as positive control
smiles,measurement,setting,value
"O=C1CCC(N2Cc3cc(CNC(=O)C(F)(F)c4ccc(Cl)cc4)ccc3C2=O)C(=O)N1 (stereo not shown) [Compound 1, 2-(4-chlorophenyl)-N-((2-(2,6-dioxopiperidin-3-yl)-1-oxoisoindolin-5-yl)methyl)-2,2-difluoroacetamide]",Induction of IL-1β release,[1]; caspase 8 knock out ML-2 cells,compromised
same,Pro-IL-1β upregulation,[1]; caspase 8 knock out ML-2 cells,remains intact
same,Pro-IL-1β upregulation and secreted IL-1β,"[1]; parental and caspase 1 knock out ML-2 cells, 48 and 72 hours",Upregulation of pro-IL-13 and increased secreted IL-1β were evident
same,"Secreted IL-1β levels, panel of mechanistic compounds",ML-2,produced markedly more secreted IL-1β compared to all other compounds tested
same,Supernatant IL-1β level induction compared to DMSO,"[2]; in 6 out of 8 AML cell lines and normal PBMC, titration of Compound 1 over a 48 hour period",over 5 fold
same,"IL-1α, IL-1β and IL-1RA induction",[2]; [7],"induced IL-1α, IL-1β and IL-1RA post-apoptosis"
same,IL-18 levels (inflammasome marker),[2]; [7],without significantly increased the levels of IL-18
same,IL-1β induction,MV4-11 [3],16.46
same,IL-18 induction,MV4-11 [3],0.00
same,IL-1β induction,KG-1,27.17
same,IL-18 induction,KG-1,0.38
same,IL-1β induction,THP-1,12.13
same,IL-18 induction,THP-1,2.46
same,IL-1β induction,NOMO-1,1.34
same,IL-18 induction,NOMO-1,0.24
same,IL-1β induction,TF-1,1.41
same,IL-18 induction,TF-1,0.64
same,IL-1β induction,[4],1.88
same,IL-18 induction,[4],0.90
same,"Secreted IL-1β levels, panel of mechanistic compounds",MV4-11 [5],produced markedly more secreted IL-1β compared to all other compounds tested
same,"Compound 1 mediated GSPT1 degradation, caspase 3 activation and viability loss",[6],complete resistance
same,"Pro-IL-1β, intracellular and supernatant IL-1β induction",[6],completely blocked
